Test results as given in patent US5445951A, “Regioselective enzymatic deacylation of sucrose esters in anhydrous organic media” (priority 1993, dated 1995).

Columns and labels:
lipase AY 30 [1] = assay: Effect of the solvent on lipase AY 30 SOA deacetylation; type: biochemical, Candida cylindracea; conditions: lipase AY 30, solvent as labelled, 24 hrs
Description: Identical enzyme catalyzed SOA deacetylations were run in numerous anhydrous solvents. After 24 hrs incubation an aliquot was analyzed by HPLC.
(§1) Enzyme and Solvent Screening for SOA Deacetylation. A scintillation vial was charged successively with 100 mg of powdered enzyme as received or prepared as described and 1.0 ml of 20 mM sucrose octaacetate (SOA) dissolved in an organic solvent. Following a 5 sec sonication, the vial was incubated in a controlled-temperature shaker at 45° C. and 300 RPM for 24 hrs. A 200 μl aliquot of the reaction mixture was withdrawn and centrifuged. The supernatant was collected and evaporated under a stream of N2. The residue was reconstituted in 200 μl of acetonitrile and 10 μl of this solution was analyzed by HPLC.

lipase AY 30 [2] = assay: Effect of the solvent on lipase AY 30 catalyzed deacylation of SOP; type: biochemical, Candida cylindracea; conditions: for ShexaP (4.2 min) / SheptaP's (8.9 min) / SheptaP's (9.4 min) / SheptaP's ([…]): lipase AY 30, 24 hrs; for ShexaP (4.2 min): HPLC peak 4.2 min; for SheptaP's (8.9 min): HPLC peak 8.9 min; for SheptaP's (9.4 min): HPLC peak 9.4 min; for SheptaP's ([…]): HPLC peak […]; for SOA: lipase AY 30, solvent as labelled, 200 mM butanol, 24 hrs, peak 21.4 min; on SheptaP's ([…]): HPLC peak 8.2 min
Description: (§2) Identical SOP deacylations were performed with lipase AY 30 or protease type XXIII in numerous anhydrous organic solvents, as shown in Tables 12 and 13.
as §1, with “Solvent” for “Enzyme and Solvent”, “screening” for “Screening”, “SOP deacylation.” for “SOA Deacetylation.”, “lipase AY 30” for “powdered enzyme as received”, “protease type XXIII” for “prepared”, “octapropionate (SOP) and 200mM butanol” for “octaacetate (SOA)”

protease type XXIII = assay: Effect of the solvent on protease type XXIII catalyzed deacylation of SOP; type: biochemical, Aspergillus oryzae; conditions: 24 hrs; for SheptaP's (8.3 min): HPLC peak 8.3 min; for SheptaP's (8.9 min): HPLC peak 8.9 min; for SheptaP's (9.9 min): HPLC peak 9.9 min; for SOP: solvent as labelled
Description: as §2
as §1, with “Solvent” for “Enzyme and Solvent”, “screening” for “Screening”, “SOP deacylation.” for “SOA Deacetylation.”, “lipase AY 30” for “powdered enzyme as received”, “protease type XXIII” for “prepared”, “octapropionate (SOP) and 200mM butanol” for “octaacetate (SOA)”

alcalase = target: T1, alcalase (Bacillus licheniformis, UniProt P00780); assay: Nucleophile screening for alcalase catalyzed deacetylation of SOA in diisopropyl ether; type: biochemical; conditions: for increase in conversion relative to reaction with no added nucleophile: 200 mM
T1 construct: purchased Novo Nordisk (gift)
T1 sequence (P00780 106-379): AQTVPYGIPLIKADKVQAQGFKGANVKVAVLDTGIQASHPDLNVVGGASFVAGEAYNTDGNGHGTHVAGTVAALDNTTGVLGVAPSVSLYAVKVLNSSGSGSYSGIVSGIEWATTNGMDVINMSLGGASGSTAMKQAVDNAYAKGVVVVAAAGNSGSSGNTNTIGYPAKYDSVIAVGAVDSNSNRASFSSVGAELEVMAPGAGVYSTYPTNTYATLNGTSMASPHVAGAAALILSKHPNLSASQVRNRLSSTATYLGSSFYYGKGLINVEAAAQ
Description: (§3) Nucleophile screening for alcalase, proleather or lipase AP 12 catalyzed deacetylation of SOA. A scintillation vial was charged successively with 100 mg of powdered enzyme prepared as described, 1.0 ml of 20 mM sucrose octaacetate (SOA) and 200 mM of the nucleophile dissolved in diisopropyl ether. Following a 5 sec sonication, the vial was incubated in a controlled-temperature shaker at 45° C. and 300 RPM for 66 hrs. A 200 μl aliquot of the reaction mixture was withdrawn and centrifuged. The supernatant was collected and evaporated under a stream of N2. The residue was reconstituted in 200 μl of acetonitrile and 10 μl of this solution was analyzed by HPLC. For screening concentration effects on enzyme activity, the same protocol was followed except the nucleophile concentration was varied from 0 to 2000 mM.

proleather = assay: Nucleophile screening for proleather catalyzed deacetylation of SOA in diisopropyl ether; type: biochemical, Bacillus subtilis; conditions: for % conv: 66 hrs
Description: as §3

lipase AP 12 = assay: Nucleophile screening for lipase AP 12 catalyzed deacetylation of SOA in diisopropyl ether; type: biochemical, Aspergillus niger; conditions: for % conv: 66 hrs
Description: as §3

[3] = nucleophile 200 mM, peak height ratio 1'-OH / 6'-OH heptaacetate
[4] = lipase AP 12, nucleophile 200 mM
[5] = methanol 20 mM, peak height ratio
[6] = methanol 50 mM, peak height ratio
[7] = methanol 100 mM, peak height ratio
[8] = methanol 200 mM (Table 10), peak height ratio
[9] = methanol 500 mM, peak height ratio
[10] = methanol 1000 mM, peak height ratio
[11] = methanol 2000 mM, peak height ratio

Work on `CC(C)=O` [acetone] yielded an SOA (lipase AY 30 [1]) of 98.6%, a SheptaA (lipase AY 30 [1]) of 1.4% and a ShexaA (lipase AY 30 [1]) of 0%. For the same molecule, the “ShexaP (4.2 min)” value (lipase AY 30 [2]) was 0%, the “SheptaP's (8.9 min)” value (lipase AY 30 [2]) was 0% and the “SheptaP's (9.4 min)” value (lipase AY 30 [2]) was 0.1%. For the same molecule, the “SheptaP's ([…])” value (lipase AY 30 [2]) was 1.2%, the SOA (lipase AY 30 [2]) was 98.7% and the “SheptaP's (8.3 min)” value (protease type XXIII) was 0.7%. The “SheptaP's (8.9 min)” value (protease type XXIII) was 0%, the “SheptaP's (9.9 min)” value (protease type XXIII) was 0.2% and the SOP (protease type XXIII) was 99.1%.

With `OC1CCCCC1` [cyclohexanol] the SOA (lipase AY 30 [1]) was 96.8%, the SheptaA (lipase AY 30 [1]) was 2.9% and the ShexaA (lipase AY 30 [1]) was 0.3%. The regiochem (alcalase; [3]) was 8.0, the “% conv” value (proleather; nucleophile 200 mM) was 38.2% and the regiochem (proleather; [3]) was 3.9. For the same molecule, the “% conv” value (lipase AP 12; [4]) was 25.0%.

In the case of `CCCCO` [butanol, n-butanol], the regiochem (alcalase; [3]) is reported as 7.4, the “% conv” value (proleather; nucleophile 200 mM) is reported as 44.4% and the regiochem (proleather; [3]) is reported as 4.8. The “% conv” value (lipase AP 12; [4]) was 25.7%.

For `OCCC1CCCCN1` (stereo not shown) [2-piperidineethanol], the regiochem (alcalase; [3]) was 8.6, the “% conv” value (proleather; nucleophile 200 mM) was 41.3% and the regiochem (proleather; [3]) was 5.1. The “% conv” value (lipase AP 12; [4]) was 10.4%.

`CCO` [ethanol] was tested, and the regiochem (alcalase; [3]) was 7.5, the “% conv” value (proleather; nucleophile 200 mM) was 47.7% and the regiochem (proleather; [3]) was 5.6. For the same molecule, the “% conv” value (lipase AP 12; [4]) was 26.7%.

Work on `CC#N` [acetonitrile] yielded an SOA (lipase AY 30 [1]) of 98.6%, a SheptaA (lipase AY 30 [1]) of 1.4% and a ShexaA (lipase AY 30 [1]) of 0%. For the same molecule, the “ShexaP (4.2 min)” value (lipase AY 30 [2]) was 0%, the “SheptaP's (8.9 min)” value (lipase AY 30 [2]) was 0% and the “SheptaP's (9.4 min)” value (lipase AY 30 [2]) was 0.2%. For the same molecule, the “SheptaP's ([…])” value (lipase AY 30 [2]) was 1.1%, the SOA (lipase AY 30 [2]) was 98.7% and the “SheptaP's (8.3 min)” value (protease type XXIII) was 1.1%. The “SheptaP's (8.9 min)” value (protease type XXIII) was 0%, the “SheptaP's (9.9 min)” value (protease type XXIII) was 0.5% and the SOP (protease type XXIII) was 98.4%.

With `OCC1CCCCC1` [cyclohexylmethanol] the regiochem (alcalase; [3]) was 8.1, the “% conv” value (proleather; nucleophile 200 mM) was 42.8% and the regiochem (proleather; [3]) was 4.4. The “% conv” value (lipase AP 12; [4]) was 24.8%.

With `CO` [methanol] the “increase in conversion relative to reaction with no added nucleophile” value (alcalase) was “at least 25%”, the “enhancement in overall conversion” value (alcalase; 0.5M methanol, in words) was “modest enhancements in overall conversion” and the regiochem (alcalase; [5]) was 7.4. For the same molecule, the regiochem (alcalase; [6]) was 8.3, the regiochem (alcalase; [7]) was 8.1 and the regiochem (alcalase; [8]) was 8.6. It also gave a regiochem (alcalase; [9]) of 8.2, a regiochem (alcalase; [10]) of 5.6 and a regiochem (alcalase; [11]) of 7.1. For the same molecule, the regiochem (alcalase; [3]) was 8.6, the increase in conversion (proleather; 1.0M methanol) was 120% and the “% conv” value (proleather; methanol 20 mM) was 38.1%. For the same molecule, the regiochem (proleather; [5]) was 4.8, the “% conv” value (proleather; methanol 50 mM) was 41.2% and the regiochem (proleather; [6]) was 5.9. The “% conv” value (proleather; methanol 100 mM) was 44.6%, the regiochem (proleather; [7]) was 6.6 and the “% conv” value (proleather; methanol 200 mM (Table 10)) was 49.4%. For the same molecule, the regiochem (proleather; [8]) was 7.9, the “% conv” value (proleather; methanol 500 mM) was 65.4% and the regiochem (proleather; [9]) was 12.4. For the same molecule, the “% conv” value (proleather; methanol 1000 mM) was 71.1%, the regiochem (proleather; [10]) was 12.6 and the “% conv” value (proleather; methanol 2000 mM) was 66.8%. For the same molecule, the regiochem (proleather; [11]) was 11.5, the “% conv” value (proleather; nucleophile 200 mM) was 53.8% and the regiochem (proleather; [3]) was 8.4. The “enhancement in overall conversion” value (lipase AP 12; lipase AP 12, 1.0M methanol, in words) was “modest enhancements in overall conversion”, the “% conv” value (lipase AP 12; lipase AP 12, methanol 20 mM) was 22.4% and the “% conv” value (lipase AP 12; lipase AP 12, methanol 50 mM) was 23.5%. The “% conv” value (lipase AP 12; lipase AP 12, methanol 100 mM) was 25.7%, the “% conv” value (lipase AP 12; lipase AP 12, methanol 200 mM (Table 10)) was 24.0% and the “% conv” value (lipase AP 12; lipase AP 12, methanol 500 mM) was 31.3%. The “% conv” value (lipase AP 12; lipase AP 12, methanol 1000 mM) was 33.4%, the “% conv” value (lipase AP 12; lipase AP 12, methanol 2000 mM) was 21.3% and the “% conv” value (lipase AP 12; [4]) was 28.2%.

For `CC(C)NC(C)C` [diisopropylamine], the “increase in conversion relative to reaction with no added nucleophile” value (alcalase) was “at least 25%”, the regiochem (alcalase; [3]) was 9.5 and the “% conv” value (proleather; nucleophile 200 mM) was 37.3%. The regiochem (proleather; [3]) was 4.9 and the “% conv” value (lipase AP 12; [4]) was 3.2%.

In the case of `CCC(C)=O` [butanone], the “ShexaP (4.2 min)” value (lipase AY 30 [2]) is reported as 0%, the “SheptaP's (8.9 min)” value (lipase AY 30 [2]) is reported as 0% and the “SheptaP's (9.4 min)” value (lipase AY 30 [2]) is reported as 0.2%. For the same molecule, the “SheptaP's ([…])” value (lipase AY 30 [2]) was 0.9%, the SOA (lipase AY 30 [2]) was 98.9% and the “SheptaP's (8.3 min)” value (protease type XXIII) was 1.0%. For the same molecule, the “SheptaP's (8.9 min)” value (protease type XXIII) was 0%, the “SheptaP's (9.9 min)” value (protease type XXIII) was 0.2% and the SOP (protease type XXIII) was 98.8%.

For `OCCc1ccccc1` [phenethyl alcohol], the regiochem (alcalase; [3]) was 7.3, the “% conv” value (proleather; nucleophile 200 mM) was 51.5% and the regiochem (proleather; [3]) was 5.3. For the same molecule, the “% conv” value (lipase AP 12; [4]) was 25.7%.

For `OCc1ccccc1` [benzyl alcohol], the regiochem (alcalase; [3]) was 8.1, the “% conv” value (proleather; nucleophile 200 mM) was 46.8% and the regiochem (proleather; [3]) was 6.6. For the same molecule, the “% conv” value (lipase AP 12; [4]) was 22.5%.

In the case of `CCCO` [propanol], the regiochem (alcalase; [3]) is reported as 8.8, the “% conv” value (proleather; nucleophile 200 mM) is reported as 46.4% and the regiochem (proleather; [3]) is reported as 5.3. The “% conv” value (lipase AP 12; [4]) was 26.2%.
